# US9815878B2, “Use of PEDF-derived polypeptides for preventing and/or ameliorating skin aging” (MacKay Memorial Hospital, priority 2012, dated 2017)
# Columns and labels:
# type I collagen (COL1A1) = assay: Type I collagen (COL1A1) level in mouse skin by immunoblot; assay type: in vivo, C57BL/6 mice; details: ointment plus microneedle (MN), twice a week for two weeks, day 14; normalized with vehicle/CT
# Experimental: (§1) Skin tissues were homogenized in ice-cold lysis buffer containing 20 mM HEPES (pH 7.4), 150 mM NaCl, 1% SDS, 1 mM ethylenediamine tetraacetic acid (EDTA), 5 mM phenylmethanesulfonyl fluoride (PMSF), and 1 mM dithiothreitol (DTT), 1% Triton X-100, with freshly added protease inhibitor cocktail (Roche, Indianapolis, Ind.). Homogenates were then centrifuged at 12,000 g for 30 minutes at 4° C., and supernatants were then collected and stored at −70° C. Protein contents in lysates were determined using the Bradford assay. Whole cell lysates were prepared using the above lysis buffer. Aliquots of the lysates were then resolved on a SDS-PAGE and then electrotransferred to polyvinylidene difluoride (PVDF) membranes (Millipore, Bedford, Mass., USA) and processed for immunoblot analysis.
# Antibodies used in the immunoblot study included anti-type I collagen 1A1 antibody (1:1000 dilution), anti-MMP-1 antibody (1:500 dilution) and anti-β-actin antibody (1:10000 dilution). Proteins of interest were detected using the appropriate IgG-HRP secondary antibody and ECL reagent (Amersham, Arlington Heights, Ill., USA). X-ray films were scanned on a Model GS-700 Imaging Densitometer (Bio-Rad Laboratories, Hercules, Calif.) and analyzed using Labworks 4.0 software. For quantification, blots from at least three independent experiments were used. […]
# dermal collagen = assay: Collagen content of UVB-damaged mouse skin, Masson's trichrome staining; assay type: in vivo, nude mice; details: 8-week UVB, then transdermal delivery for 2 weeks
# Experimental: General histology was performed using hematoxylin and eosin (H&E) dye. Deparaffinized skin tissue sections were stained using Masson's Trichrome (Sigma-Aldrich, St. Louis, Mo.) according to the manufacturer's instructions; sections was examined and photographed by a Nikon Eclipse 80i light microscope (original magnification, ×400). For semi-quantitative analysis of collagen area, 10 fields from each slide were randomly selected under the light microscope, and the blue-stained area per entire area of the cross section (mm^2/mm^2) was measured using the Image-Pro Plus 4.5.1 system (Media Cybernetics).
# Six-week-old female nude mice (BALB/cAnN.Cg-Foxn1nu/CrlNarl) were irradiated with ultraviolet B (UVB) on the back 5 times a week for an eight-week period using a bank of five UVB lamps (model XL-1000B, Spectrolinker™ apparatus; emission peak: 312 nm), placed about 20 cm above the backs of the animals. During the UVB exposure, the mice were allowed to move freely within the cage. […] The level of BrdU- and vimentin-double positive cells was expressed as the percentage of BrdU- and vimentin-double positive cells per total vimentin-positive cells (the BrdU/Vimentin Labeling Index). […]
# [1] = system: Human dermal fibroblasts (WS-1 cells); assay: Cell migration of WS-1 cells, transwell assay; assay type: cell-based; details: 100 nM for 24 hours, data not shown
# Excerpt: According to our preliminary study, cell viability was greater than 95% relative to that of the control after exposure to 15 mJ/cm^2 UVB irradiation (data not shown). […] Therefore, the exposure dose was set at 15 mJ/cm^2 in the following experiment.
# MMP-1 = assay: UVB-induced MMP-1 protein expression in WS-1 cells, western blotting; assay type: cell-based, human; details: for MMP-1 Expression Level (%): Vehicle/UVB set to 100%; for MMP-1 protein level relative to vehicle/UVB group: pre-incubation with peptide
# Experimental: Human skin fibroblast WS-1 cell line was obtained from Food Industry Research and Development Institute (Hsin-Chu, Taiwan). The WS-1 cells were maintained in a 37° C., 5% CO2 humidified incubator as monolayers in culture flasks. They were grown in 10% FBS-DMEM supplemented with 2 mM L-glutamine, 0.1 mM non-essential amino acids, 1% penicillin/streptomycin. For passage, near-confluent cells were sub-cultured by 0.25% trypsin/EDTA.
# as §1
# Antibodies used in the immunoblot study included anti-type I collagen 1A1 antibody (1:1000 dilution), anti-MMP-1 antibody (1:500 dilution) and anti-β-actin antibody (1:10000 dilution). Proteins of interest were detected using the appropriate IgG-HRP secondary antibody and ECL reagent (Amersham, Arlington Heights, Ill., USA). X-ray films were scanned on a Model GS-700 Imaging Densitometer (Bio-Rad Laboratories, Hercules, Calif.) and analyzed using Labworks 4.0 software. For quantification, blots from at least three independent experiments were used.
# WS-1 were seeded on a six-well plate at a density of 1×10^5 cells per well and grown in the 10% FBS-DMEM growth medium for 24 hours and then incubated with 1% FBS-DMEM supplemented with or without 100 nM PEDF peptide for further 24 hours. The cells were washed twice with phosphate buffered saline (PBS) and exposed to UVB radiation covered with PBS. The UVB treatment was conducted in a cell culture hood by using a UVB lamp (model XL-1000B, Spectrolinker™ Inc.) at a final dose of 15 mJ/cm^2 for about 100 seconds. Cell viability was assayed using trapan blue exclusion assay (>95%). After UVB irradiation, PBS was replaced with 1% FBS-DMEM with or without PEDF peptide for further 48 hours and then protein extracts were assayed by western blotting for the expression of MMP-1 protein. Cells that were not subjected to UVB irradiation were used as control (normal). The expression level of MMP-1 was normalized with the expression level in the Vehicle/UVB group (set to 100%), and quantitative results are summarized in Table 6.
# [2] = system: primary mouse dermal fibroblasts; assay: Cell migration of primary mouse dermal fibroblasts, transwell assay; assay type: cell-based; details: 100 nM for 24 hours, data not shown
# [3] = 100 nM peptide 24 h before and 48 h after UVB 15 mJ/cm^2
Substance,COL1A1 Level (fold) (type I collagen (COL1A1)),"collagen level in the dermis versus UVB/vehicle group (Masson's trichrome, FIG. 5) (dermal collagen)",cell migration [1],MMP-1 Expression Level (%) (MMP-1; [3]),"MMP-1 Expression Level (%) (MMP-1; 100 nM peptide, no UVB irradiation)",MMP-1 protein level relative to vehicle/UVB group (MMP-1),cell migration [2]
Ac-SLGAEQRTESIIHRALYYDLISSPDIHGT-NH2 [29-mer],1.7 ± 0.24,significantly enhanced,did not cause any significant change in cell migration,42 ± 3.3,5 ± 2.3,about half,did not cause any significant change in cell migration
"SLGAEQRTESIIHRALYYDL [20-mer, synthetic peptide corresponding to residues 93-112 of human PEDF]",1.8 ± 0.20,significantly enhanced,–,50 ± 5.1,–,about half,–
